{"source": "patent US11857596B2", "about": "“Animal feed additive and animal feed” (priority 2018, dated 2024)", "key": {"[1]": {"tested_on": "Salmonella enterica AJ2785", "test": "microbe, parasite or virus in culture", "format": "cell-based"}, "[2]": {"tested_on": "Lactobacillus salivarius AJ110152", "test": "Minimum inhibitory concentration, spot-on-lawn method", "format": "cell-based", "details": "indicator strain Lactobacillus salivarius AJ110152; MRS, 37° C."}, "[3]": {"tested_on": "Caco-2 cells (human intestinal epithelial cells)", "test": "Membrane strengthening experiment (TER recovery of barrier function after TNF-α)", "format": "cell-based", "details": "for function of strengthening the barrier function (membrane-strengthening ability): result in words, FIG. 1A-1H"}, "[4]": {"tested_on": "Bacteroides fragilis JCM11019", "test": "Minimum inhibitory concentration, spot-on-lawn method", "format": "cell-based", "details": "indicator strain Bacteroides fragilis JCM11019; GAM, 37° C."}, "[5]": {"tested_on": "Enterococcus faecalis AJ110149", "test": "Minimum inhibitory concentration, spot-on-lawn method", "format": "cell-based", "details": "indicator strain Enterococcus faecalis AJ110149; MRS, 30° C.; ND = no effect detected"}, "[6]": {"tested_on": "Bifidobacterium thermophilum AJ110569", "test": "Minimum inhibitory concentration, spot-on-lawn method", "format": "cell-based", "details": "indicator strain Bifidobacterium thermophilum AJ110569; GAM, 37° C."}, "[7]": {"tested_on": "Lactobacillus acidophilus AJ13778", "test": "Minimum inhibitory concentration, spot-on-lawn method", "format": "cell-based", "details": "indicator strain Lactobacillus acidophilus AJ13778; MRS, 37° C."}, "[8]": {"tested_on": "Clostridium perfringens AJ3350", "test": "microbe, parasite or virus in culture", "format": "cell-based"}, "Escherichia coli MG1665": {"tested_on": "Escherichia coli MG1665", "test": "Minimum inhibitory concentration, spot-on-lawn method", "format": "cell-based"}, "Salmonella enterica (SE) [9]": {"tested_on": "Salmonella enterica (SE)", "test": "Salmonella infection test in chickens (body weight gain and feed conversion ratio)", "format": "in vivo, chickens (broilers)", "details": "for BWG / FCR: 0-3 week, SE orally at 2 days of age", "description": "The coated-Tyr and Tyr prepared in the same manner as in Example 2-1 were added to the feed matrix having the composition presented in Table 2 so that the amount of the core material was 200 ppm, to thereby prepare a feed. Broilers at 1 day of age were introduced into a breeding facility for infection test (6 broilers/repeat and 2 repeats/test group), then Salmonella enterica (SE) was orally administered to the broilers at 2 days of age, and the test feed was fed for 21 days to evaluate the body weight gain effect and feed conversion ratio of chickens. Note that a conventional antimicrobial growth promoter, enramycin, was used as a positive control. As enramycin, a commercially available product (“Enramycin F-80” manufactured by Scientific Feed Laboratory Co., Ltd., uncoated) was used as it was.\nThe results are presented with a negative control of 100. […]\nBroilers at 0 days of age were introduced into a breeding facility for infection test (6 broilers/repeat and 2 repeats/test group), then Salmonella enterica (SE) was orally administered to the broilers at 2 days of age, and the test feed was fed for 21 days to evaluate the body weight gain effect and feed conversion ratio. Note that a conventional antimicrobial growth promoter, enramycin, was used as a positive control. As enramycin, a commercially available product (“Enramycin F-80” manufactured by Scientific Feed Laboratory Co., Ltd., uncoated) was used as it was."}, "Salmonella enterica (SE) [10]": {"tested_on": "Salmonella enterica (SE)", "test": "Salmonella infection test in chickens (body weight gain and feed conversion ratio)", "format": "in vivo, chickens (broilers)", "details": "Table 5; 0-3 week; addition 10 ppm; SE orally at 2 days of age; negative control = 100"}, "Clostridium perfringens": {"tested_on": "Clostridium perfringens", "format": "cell-based", "design": "key: “+” to “+++++”: indicates the strength of antibacterial effect. The more “+”, the stronger the effect.; “+” to “+++++”: indicates the strength of antibacterial effect. The more “+”, the stronger the effect.; “+” to “+++++”: indicates the strength of antibacterial effect. The more “+”, the stronger the effect.; “+” to “+++++”: indicates the strength of antibacterial effect. The more “+”, the stronger the effect.; “+” to “+++++”: indicates the strength of antibacterial effect. The more “+”, the stronger the effect.; “ND”: indicates no effect detected (not detected)", "details": "Nisin A and Duramycin 1 mg/ml, others 10-fold concentrated culture supernatant of producers"}, "[11]": {"tested_on": "Bacteroides fragilis JCM11019", "test": "Antibacterial spectrum of bacteriocin, spot-on lawn method", "format": "cell-based", "design": "key: “+” to “+++++”: indicates the strength of antibacterial effect. The more “+”, the stronger the effect.; “+” to “+++++”: indicates the strength of antibacterial effect. The more “+”, the stronger the effect.; “+” to “+++++”: indicates the strength of antibacterial effect. The more “+”, the stronger the effect.; “+” to “+++++”: indicates the strength of antibacterial effect. The more “+”, the stronger the effect.; “+” to “+++++”: indicates the strength of antibacterial effect. The more “+”, the stronger the effect.; “ND”: indicates no effect detected (not detected)", "details": "Nisin A and Duramycin 1 mg/ml, others 10-fold concentrated culture supernatant of producers"}, "[12]": {"tested_on": "Bifidobacterium thermophilum AJ110569", "test": "Antibacterial spectrum of bacteriocin, spot-on lawn method", "format": "cell-based", "design": "key: “+” to “+++++”: indicates the strength of antibacterial effect. The more “+”, the stronger the effect.; “+” to “+++++”: indicates the strength of antibacterial effect. The more “+”, the stronger the effect.; “+” to “+++++”: indicates the strength of antibacterial effect. The more “+”, the stronger the effect.; “+” to “+++++”: indicates the strength of antibacterial effect. The more “+”, the stronger the effect.; “+” to “+++++”: indicates the strength of antibacterial effect. The more “+”, the stronger the effect.; “ND”: indicates no effect detected (not detected)", "details": "Nisin A and Duramycin 1 mg/ml, others 10-fold concentrated culture supernatant of producers"}, "[13]": {"tested_on": "Lactobacillus acidophilus", "test": "Antibacterial spectrum of bacteriocin, spot-on lawn method", "format": "cell-based", "design": "key: “+” to “+++++”: indicates the strength of antibacterial effect. The more “+”, the stronger the effect.; “+” to “+++++”: indicates the strength of antibacterial effect. The more “+”, the stronger the effect.; “+” to “+++++”: indicates the strength of antibacterial effect. The more “+”, the stronger the effect.; “+” to “+++++”: indicates the strength of antibacterial effect. The more “+”, the stronger the effect.; “+” to “+++++”: indicates the strength of antibacterial effect. The more “+”, the stronger the effect.; “ND”: indicates no effect detected (not detected)", "details": "Nisin A and Duramycin 1 mg/ml, others 10-fold concentrated culture supernatant of producers"}, "intestinal microbiota": {"tested_on": "intestinal microbiota", "details": "cited from earlier work"}, "[14]": {"details": "500 to 1,000 ppm of quercetin added to the feed; cited from earlier work"}, "[15]": {"test": "Chicken growth test (body weight gain and feed conversion ratio)", "format": "in vivo, broiler chickens"}, "[16]": {"test": "Metabolome analysis of intestinal tract contents and blood", "format": "in vivo, chickens", "details": "metabolome analysis; chicken growth test of 2-3", "excerpt": "It is thus considered that coated-Phe and coated-Tyr are assimilated by intestinal bacteria in feces and rapidly metabolized in blood."}, "[17]": {"details": "material conc. 100 uM, comparison value with Ctr (TNFα alone), 24 h"}, "[18]": {"details": "Table 8, 10 ppm, control group = 100%"}, "[19]": {"details": "Table 4, 0-3 weeks, addition 200 ppm (core material) in feed"}, "[20]": {"details": "Table 5, addition 200 ppm, negative control = 100"}}, "data": [{"compound": "enramycin", "values": [{"measurement": "Minimum inhibitory concentration", "setting": "[1]", "value": ">100000", "unit": "µg/mL"}, {"measurement": "Minimum inhibitory concentration", "setting": "[2]", "value": 500, "unit": "µg/mL"}, {"measurement": "Recovery ratio (%)", "setting": "[3]; material conc. 100 uM, TER barrier function recovery, 24 h", "value": 144, "unit": "%"}, {"measurement": "Recovery ratio/ctr", "setting": "[3]; [17]", "value": 1.28}, {"measurement": "Minimum inhibitory concentration", "setting": "[4]", "value": 64000, "unit": "µg/mL"}, {"measurement": "Minimum inhibitory concentration", "setting": "[5]", "value": 4000, "unit": "µg/mL"}, {"measurement": "Minimum inhibitory concentration", "setting": "[6]", "value": 500, "unit": "µg/mL"}, {"measurement": "Minimum inhibitory concentration", "setting": "[7]", "value": 500, "unit": "µg/mL"}, {"measurement": "Minimum inhibitory concentration", "setting": "[8]", "value": 1000, "unit": "µg/mL"}, {"measurement": "Minimum inhibitory concentration", "setting": "Escherichia coli MG1665", "value": ">100000", "unit": "µg/mL"}, {"measurement": "BWG", "setting": "Salmonella enterica (SE) [9]; [18]", "value": 107, "unit": "%"}, {"measurement": "FCR", "setting": "Salmonella enterica (SE) [9]; [18]", "value": 98, "unit": "%"}, {"measurement": "BWG", "setting": "Salmonella enterica (SE) [10]", "value": 107, "unit": "%"}, {"measurement": "FCR", "setting": "Salmonella enterica (SE) [10]", "value": 98, "unit": "%"}]}, {"compound": "duramycin", "values": [{"measurement": "Antibacterial spectrum (strength of antibacterial effect)", "setting": "Clostridium perfringens", "value": "+++++"}, {"measurement": "Antibacterial spectrum (strength of antibacterial effect)", "setting": "[11]", "value": "+"}, {"measurement": "Recovery ratio (%)", "setting": "[3]; material conc. 1 uM, TER barrier function recovery, 24 h", "value": 120, "unit": "%"}, {"measurement": "Recovery ratio/ctr", "setting": "[3]; material conc. 1 uM, comparison value with Ctr (TNFα alone), 24 h", "value": 1.04}, {"measurement": "Antibacterial spectrum (strength of antibacterial effect)", "setting": "[12]", "value": "++"}, {"measurement": "Antibacterial spectrum (strength of antibacterial effect)", "setting": "[13]", "value": "+"}]}, {"compound": "O=c1c(O)c(-c2ccc(O)c(O)c2)oc2cc(O)cc(O)c12", "note": "[Quercetin, quercetin]", "values": [{"measurement": "effect on the intestinal microbiota", "setting": "intestinal microbiota", "value": "negative effect"}, {"measurement": "activity at 100 µM", "setting": "[3]; Homo sapiens, Caco-2, material conc. 100 uM, TER barrier function recovery, 24 h, read-out: Recovery ratio (%)", "value": 138, "unit": "%"}, {"measurement": "Recovery ratio/ctr", "setting": "[3]; [17]", "value": 1.23}, {"measurement": "function of strengthening the barrier function (membrane-strengthening ability)", "setting": "[3]", "value": "observed to have the function of strengthening the barrier function"}, {"measurement": "body weight gain effect (body weight gain efficiency) and feed consumption", "setting": "[14]", "value": "did not increase"}, {"measurement": "feed conversion ratio", "setting": "[14]", "value": "remained almost unchanged or slightly decreased"}]}, {"compound": "N[C@@H](Cc1ccc(O)cc1)C(=O)O", "note": "[Tyrosin, tyrosine]", "values": [{"measurement": "Recovery ratio/ctr", "setting": "[3]; 24 h, 20 µM", "value": 1.19}, {"measurement": "activity at 20 µM", "setting": "[3]; Homo sapiens, Caco-2, material conc. 20 uM, TER barrier function recovery, 24 h, read-out: Recovery ratio (%)", "value": 138, "unit": "%"}, {"measurement": "function of strengthening the barrier function (membrane-strengthening ability)", "setting": "[3]", "value": "observed to have the function of strengthening the barrier function"}, {"measurement": "BWG", "setting": "[15]; [19]", "value": 104, "unit": "%"}, {"measurement": "FCR", "setting": "[15]; [19]", "value": 98, "unit": "%"}, {"measurement": "body weight gain effect and feed conversion ratio improvement effect", "setting": "[15]; result in words, healthy broilers, 0 to 21 days of age", "value": "A certain degree of body weight gain effect was confirmed"}, {"measurement": "detection in the intestinal tract contents or blood", "setting": "[16]", "value": "not detected"}, {"measurement": "BWG", "setting": "Salmonella enterica (SE) [9]; [20]", "value": 96, "unit": "%"}, {"measurement": "FCR", "setting": "Salmonella enterica (SE) [9]; [20]", "value": 100, "unit": "%"}, {"measurement": "body weight gain effect and feed conversion ratio improvement effect", "setting": "Salmonella enterica (SE) [9]; result in words, Salmonella enterica infected broilers, test feed 21 days", "value": "no effect"}]}]}
